This is an account of results in the Deep4Chem optical property database.

This data set in a line: solvent given as SMILES.

As for `CC(C)(C)c1ccc(-n2c(-c3ccc(-c4ccc(-c5c(-c6ccccc6)nc6ccccn56)cc4)cc3)nc3c4ccccc4c4ccccc4c32)cc1`, the emission maximum (in ClCCl) stood at 426 nm.

For the compound `N#Cc1cc(-c2ccc(F)cc2)cnc1O`, the emission maximum was 422 nm (in C1COCCO1); 425 nm (in CC1CCCCC1); 423 nm (in CC#N); 424 nm (in CC(C)O); 425 nm (in CCO); 425 nm (in CO). The emission maximum runs as follows: (in CS(C)=O) 427 nm; (in ClC(Cl)(Cl)Cl) 429 nm; (in O) 425 nm.

With `c1ccc(-c2nc(-c3ccccc3)nc(-c3ccccc3-n3c4ccccc4c4c5oc6ccccc6c5ccc43)n2)cc1`, the emission maximum by setting is: (in C1CCCCC1) 438.08 nm; (in C1CCOC1) 492.26 nm; (in Cc1ccccc1) 474.61 nm; (in O=P(c1ccccc1)(c1ccccc1)c1ccccc1Oc1ccccc1P(=O)(c1ccccc1)c1ccccc1) 456.95 nm.

On to `[C-]#[N+]c1ccc(-c2ccc(N)cc2)cc1`, for which the emission maximum is, setting by setting: (in C1CCCCC1) 354 nm; (in C1CCOC1) 396 nm; (in C1COCCO1) 383 nm; (in CC#N) 410 nm; (in CC(C)=O) 407 nm; (in CCCCCC) 353 nm. Also, the emission maximum runs as follows: (in CCOC(C)=O) 397 nm; (in CN(C)C=O) 423 nm; (in CO) 419 nm; (in CS(C)=O) 424 nm; (in Cc1ccccc1) 371 nm; (in ClC(Cl)Cl) 398 nm. Also, the emission maximum turned out to be 390 nm (in ClCCl), 457 nm (in O) and 415 nm (in c1ccncc1).

Regarding `C=Cc1cccc(OC)c1`, the emission maximum is given as 327 nm (in C1CCCCC1) and 330 nm (in CC#N).

Consider `CCC1=C(C)C2=C(C)c3cccn3[B-](F)(F)[N+]2=C1C`, for which the emission maximum came out at 515 nm (in C1CCCCC1); 512.5 nm (in CC(C)=O); 513.5 nm (in CCO); 512.5 nm (in CCOC(C)=O); 512.5 nm (in CO); 511 nm (in OCC(F)(F)F).

`CCCCCCn1c2cc(/C=C/c3ccccc3)ccc2c2ccc(/C=C/c3ccccc3)cc21`: the emission maximum (in ClC(Cl)Cl) turned out to be 414.94 nm.

`C[Si]1(C)O[Si](C)(C)c2cc3c(-c4ccccc4)c4cc([N+](=O)[O-])ccc4nc3cc21` yielded an emission maximum (in ClCCl) of 521 nm.

Take `CCCCN(CCCC)c1ccc(/C=C/c2ccc3c(c2)CCc2cc(/C=C/c4ccc(N(CCCC)CCCC)cc4)ccc2-3)cc1`: the emission maximum stood at 536.5 nm (in CS(C)=O) and 456.4 nm (in Cc1ccccc1).

Take `CCOc1cc2c(cc1/C=C/C1=CC(=C(C#N)C#N)CC(C)(C)C1)c1ccccc1n2CC`: the emission maximum (in C1CCOC1) was 610 nm; the emission maximum (in CC#N) was 629 nm; the emission maximum (in CCO) turned out to be 632 nm; the emission maximum (in CCOC(C)=O) stood at 591 nm; the emission maximum (in CN(C)C=O) is recorded as 635 nm; the emission maximum (in CS(C)=O) was 641 nm. Besides, the emission maximum (in Cc1ccccc1) is 578 nm, the emission maximum (in ClC(Cl)Cl) is on record as 608 nm and the emission maximum (in ClCCl) was 617 nm.

`c1ccc2c(c1)ccc1ccc3ccc4ccccc4c3c12` showed an emission maximum (in ClC(Cl)Cl) of 424 nm.

In turn, `O=C([O-])c1ccc(C(=O)[O-])c2cc3ccccc3cc12` displayed an emission maximum (in CN(C)C=O) of 430 nm.

With `COc1ccc(-c2c(-c3ccc(OC)cc3)c3c4c(cccc4c2-c2ccccc2)C(=O)c2ccccc2-3)cc1`, the emission maximum runs as follows: (in CC#N) 527 nm; (in CO) 579 nm.

Regarding `COc1c2ccccc2c(OC)c2c1c1c(C)ccc(OC)c1n2C`, the emission maximum stood at 427 nm (in C1CCCCC1), 445 nm (in CC#N), 440 nm (in CO) and 443 nm (in ClCCl).

`CN(C)c1ccc(-c2cc(-c3ccc(C#N)cc3)nn2C)cc1`: the emission maximum is 363 nm (in C1CCCCC1); 595 nm (in CC#N); 481 nm (in CCOC(C)=O); 429 nm (in CCOCC); 590 nm (in CN(C)C=O); 410 nm (in Cc1ccccc1). Moreover, for the setting “in ClCCl”, the emission maximum was 499 nm.

Turning to `COc1ccc(N(c2ccccc2)c2ccc(OC)cc2)cc1`, where the note is “in Cc1ccccc1”, the emission maximum is given as 387 nm.

Under “in CS(C)=O”, `CN1/C(=C/C=C/C2=[N+](C)c3ccccc3C2(C)C)Sc2ccccc21` displayed an emission maximum of 569 nm.

On to `CC(C)(C)c1ccc(-c2c3c(c(-c4ccc(C(C)(C)C)cc4)c4cc5ccccc5cc24)Cc2c(c(-c4ccc(C(C)(C)C)cc4)c4cc5ccccc5cc4c2-c2ccc(C(C)(C)C)cc2)C3)cc1`, for which, for the setting “in ClCCl”, the emission maximum turned out to be 409 nm.

On to `CN(C)c1ccc(/C=C/c2nc3ccc(Br)cc3nc2-c2ccccc2)cc1`, for which the emission maximum runs as follows: (in C1COCCO1) 555 nm; (in CC#N) 648 nm; (in ClCCl) 602 nm.

Regarding `O=c1oc2ccccc2cc1-c1ccc(-c2cc3ccccc3oc2=O)cc1`, the emission maximum (in CC#N) amounted to 426 nm; the emission maximum (in CCO) was 426 nm; the emission maximum (in CCOC(C)=O) was determined as 426 nm; the emission maximum (in CS(C)=O) is on record as 430 nm; the emission maximum (in Cc1ccccc1) turned out to be 424 nm; the emission maximum (in ClC(Cl)Cl) was determined as 430 nm.

Turning to `Cc1cc(-c2nnc(-c3ccccc3)o2)ccc1-n1c2ccccc2c2ccccc21`, the emission maximum worked out at 445 nm (in CCO) and 382 nm (in Cc1ccccc1).

Take `C1=Cc2ccccc2C(=Cc2ccc(-c3ccc(C=C4c5ccccc5C=Cc5ccccc54)cc3)cc2)c2ccccc21`: the emission maximum (in C1CCOC1) is reported as 405 nm.

Regarding `C(S/C=C/c1ccc(-c2ccc(/C=C/SC=C(c3ccccc3)c3ccccc3)cc2)cc1)=C(c1ccccc1)c1ccccc1`, the emission maximum (in ClCCl) came out at 441 nm.

For the compound `N#CC1=c2cc3c4c(c2Oc2c1cc1c5c2CCCN5CCC1)CCC[N+]=4CCC3`, under “in CCO”, the emission maximum was determined as 700 nm.

As to `CN1CCCc2cc3c(C(F)(F)F)cc(=O)oc3cc21`, the emission maximum reads like this: (in C1CCCCC1) 439 nm; (in CC#N) 510 nm; (in CCO) 515 nm.

Consider `Cc1ccc2c(nc3c(=O)n(C)c(=O)nc-3n2C)c1C`, for which, for the setting “in CC#N”, the emission maximum is 543 nm.

In the case of `CC1(C)C(/C=C/C=C/C=C/C=C2/N(CCCCCC(=O)O)c3ccc(S(=O)(=O)[O-])cc3C2(C)C)=[N+](CCCCCC(=O)O)c2ccc(S(=O)(=O)[O-])cc21`, the emission maximum was determined as 773 nm (in CO) and 771 nm (in O).

Where the note is “in C1COCCO1”, `CC(C)CN1C(=O)/C(=C/c2ccc([N+](=O)[O-])cc2)C=C1c1ccccc1` registered an emission maximum of 601 nm.

Under “in ClC(Cl)Cl”, `CCCCN1c2ccccc2Sc2cc(/C=C\c3cc(=O)oc4cc(C)ccc34)ccc21` came in with an emission maximum of 632 nm.

`CCCCCCn1c2cc(C=O)sc2c2sc3c(sc4c5sc(C=O)cc5n(CCCCCC)c43)c21` came in with an emission maximum (in ClCCl) of 496 nm.

With `C#Cc1ccc(-c2c3nc(c(-c4ccc(C#C)cc4)c4ccc([nH]4)c(-c4cc(C(C)(C)C)cc(C(C)(C)C)c4)c4cc(c(-c5cc(C(C)(C)C)cc(C(C)(C)C)c5)c5ccc2[nH]5)C=N4)C=C3)cc1`, where the note is “in ClCCl”, the emission maximum is on record as 744 nm.

On to `c1ccc(-c2nc(-c3ccccc3)c(-c3ccccc3)[nH]2)cc1`, for which the emission maximum is, setting by setting: (in CC#N) 387 nm; (in CO) 386.5 nm.

Take `COC(=O)C(NC(=O)OC(C)(C)C)c1ccc2oc(-c3ccc(C#N)cc3)nc2c1` (stereo not drawn): the emission maximum by setting is: (in CC1CCCCC1) 342 nm; (in CC#N) 384 nm; (in CO) 385 nm.

In the case of `CN(C)c1ccc2c(c1)-c1ccccc1C2=O`, the emission maximum was 491 nm (in C1CCCCC1), 557 nm (in CC#N), 592 nm (in CCO) and 526 nm (in c1ccccc1).

Turning to `c1csc(-c2ccc(-c3ccc(-c4cccs4)s3)s2)c1`, the emission maximum is reported as 474 nm (in CCCCCCCCCCCCCC) and 480 nm (in ClCCl).

For the compound `CC/[NH+]=c1\cc2oc3cc(NCCC(=O)NC(CCC(=O)OC)C(=O)OC)c4ccccc4c3nc-2cc1C` (stereo not drawn), the emission maximum turned out to be 644 nm (in CCO) and 652 nm (in O).

`CN(C)c1ccc2nc(-c3ccc(C=C4C(=O)c5ccccc5C4=O)cc3)sc2c1`: the emission maximum by setting is: (in C1CCCCC1) 535 nm; (in ClC(Cl)Cl) 727 nm.

As for `CN1C(=O)c2cccc3c(-n4c5ccccc5c5ccccc54)ccc(c23)C1=O`, the emission maximum runs as follows: (in C1CCOC1) 537 nm; (in CCCCCC) 440 nm; (in ClC(Cl)Cl) 489 nm; (in ClCCl) 556 nm.

In turn, `c1ccc(N(c2ccccc2)c2ccc(-c3ncc(-c4ccc(-c5ccc(-c6cnc(-c7ccc(N(c8ccccc8)c8ccccc8)cc7)s6)s5)s4)s3)cc2)cc1` gave an emission maximum (in CO) of 509 nm.

Regarding `Cc1ccc(-n2c(-c3cccc4cc[n-]c34)[nH+]c3c4ccccc4c4ccccc4c32)cc1`, under “in Cc1ccccc1”, the emission maximum turned out to be 566 nm.

With `Oc1ccc(-c2ccco2)cc1-c1nc2ccccc2s1`, the emission maximum runs as follows: (in CCO) 435 nm; (in ClCCl) 406 nm; (in O) 577 nm.

As to `Cc1ccc(N(c2ccc(C)cc2)c2ccc(-c3ccc(C=C(C#N)C#N)cc3)cc2)cc1`, the emission maximum (in ClC(Cl)Cl) is listed as 676 nm.

Consider `COc1ccc(NC(=O)C(C(=O)Nc2ccc(OC)cc2)C(c2ccccc2O)c2c(C)[nH]c3ccccc23)cc1` (stereo not drawn), for which the emission maximum runs as follows: (in CO) 350 nm; (in CS(C)=O) 360 nm.

As for `N#CC(C#N)=Cc1ccc2c(c1)c1ccccc1n2-c1cc2ccccc2c2ccccc12`, the emission maximum reads like this: (in CC#N) 503 nm; (in CCCCC) 451 nm; (in Cc1ccccc1) 445 nm; (in ClCCl) 480 nm.
